No end group written: not given here.
Experiments:
CD8+ T cells = assay: Proliferation of depoted T cells after 3 d stimulation with 1:1 anti-CD3/28 beads (CFSE dilution); format: cell-based, murine; conditions: 1:1 beads
Protocol: T-Cells were cultured with 5 μM of soluble lipo-CpG or depoted with lipo-CpG, and CFSE dilution was measured by flow cytometry. B) Quantification of division index of CD4^+ T-cells as measured by CFSE dilution from flow cytometry. n=3 independent experiments, one-way ANOVA with Krustal-Wallis test. *p<0.05 between the unstim condition.
CD45.1+ B cells were depoted with lipo-CpG, CpG, or nothing. These were cultured alone or 1:1 mixed with bystander (no depot) CD45.1− B cells. B cell activation was shown as fold intensity CD86 measured by flow cytometry after 3 d. B) CD8+ T cells were depoted with Pam2CSK4 or nothing, and then co-cultured 1:1 with bystander CD45.1+ B cells for 3 d. B cell activation was measured by CD86 and compared to a continuous exposure Pam2CSK4 control. C) Representative histograms showing CFSE dilution (proliferation) of CD8+ T cells after 3 d stimulation with 1:1 anti-CD3/28 beads. Where indicated, cells were depoted or cultured with continuous soluble lipo-CpG (left) or Pam2CSK4 (right). Bars=median, whiskers=range; n=3.
B cells depoted with lipo-CpG had sustained activation up to 3 d (FIG. 10 A). […] The ability of a surface sensed lipo-Av to activate neighboring cells was also tested, using Pam2CSK4 which engages surface TLR2.

[1] = tested on: CD8+ T cells with B16F10 tumor cells; assay: Proliferation of depoted CD8+ T cells with αCD3/28 beads in the presence of immunosuppressive tumor cells; format: cell-based, murine; conditions: 3 days coculture with αCD3/28 beads
Protocol: A) Flow cytometry histograms showing CFSE dilution of CD8^+ T-cells after 3-day stimulation with ratios of 1:1 αCD3/CD28 beads and 1:5 B16F10 tumor cells (blue text). T-Cells were cultured with 10 μg/ml of soluble Pam2CSK4 or Pam3CSK4 either alone or in combination with 5 μM of soluble lipo-CpG (solid fill), or depoted with the same respective combinations (tinted fill). B) Quantification of percent of CD8^+ T-cells that divided >5 times compared to undivided CD8^+ T-cells as measured by CF SE dilution from flow cytometry. C) IL-2 production from CD8^+ T-cell supernatents after 3 days of proliferation. n=1 independent experiment.
The proliferative capacity of depoted CD8+ T cells was evaluated after 3 days of coculture with αCD3/28 beads in the presence or absence of immunosuppressive tumor cells.

T-cells = assay: Insertion (depoting) of TLR2 ligands into cell membranes and intracellular localisation; format: cell-based, murine
Protocol: A) Structure of synthesized lipo-ligand, which are diacyl 18-carbon tails conjugated to: unmethylated CpG oligonucleotide ([…]) (SEQ ID NO: 1), or a poly(ethylene) glycol (PEG) linker plus a melanoma antigen, GP10025-33 (KVPRNQDWL) (SEQ ID NO: 2). B) Schematic of lipo-ligand depoting into cell membrane surface. C-D, CD4+ and CD8+ T-cells are identified by flow cytometry and median fluorescence intensity (MFI) of labeled ligand is determined on each cell subset as a function of time and ligand concentration. C) Fluoroscein (FAM)-labeled lipo-CpG, a TLR9 ligand, depoted into murine splenic immune cells. D) Pam2CSK4, a TLR2 ligand, depoted into murine splenic immune cells. E) MFI of lipo-GP100 is determined by flow cytometry as a function of cell density and depot volume. F-G, Isolated T-cells are depoted by varying depot time or ligand concentration, and quantified as average number of ligand per T-cell by enzyme-linked immunosorbant assay (ELISA) F) Lipo-CpG depoted into isolated T-cells. G) Pam2CSK4 and Pam3CSK4, another TLR2 ligand, respectively depoted into isolated T-cells. H) Average number of each respective ligand per splenic immune cell after 1 hour depot. n=3-5 independent experiments. Data depict m±s.d.
A) Splenic immune cells were depoted with 10 μg/ml of Pam2CSK4 for 1 h. Depoted cells were resting for up to 1 h versus nondepoted cells with addition of 100 ng/ml of soluble Pam2CSK4. Phosphorylated p38 was measured compared to negative controls by western blotting. n=2 independent experiments. Data depict m±s.d. B) Isolated T-cells were depoted with TLR2 ligand and MFI of activation markers, MHCII and CD69, on bystander B-cells were measured after 2-day culture by flow cytometry and normalized to unstimulated B-cells (fold MFI). n=5-6 independent experiments, one-way ANOVA with Kruskal-Wallis test. Data depict m±s.d. C) Splenocytes were cultured in 2 μg/ml of Concanavalin A and 10 ng/ml of IL-7 for 2 days, and isolated T-cells were then TLR2 ligand-depoted for 1 hour. […]

bystander B cells (TLR2) = assay: TLR2 ligand-depoted T cells co-cultured with bystander B cells, activation markers by flow cytometry; format: cell-based, mouse
Protocol: A) Splenic immune cells were depoted with 10 μg/ml of Pam2CSK4 for 1 h. Depoted cells were resting for up to 1 h versus nondepoted cells with addition of 100 ng/ml of soluble Pam2CSK4. Phosphorylated p38 was measured compared to negative controls by western blotting. n=2 independent experiments. Data depict m±s.d. B) Isolated T-cells were depoted with TLR2 ligand and MFI of activation markers, MHCII and CD69, on bystander B-cells were measured after 2-day culture by flow cytometry and normalized to unstimulated B-cells (fold MFI). n=5-6 independent experiments, one-way ANOVA with Kruskal-Wallis test. Data depict m±s.d. C) Splenocytes were cultured in 2 μg/ml of Concanavalin A and 10 ng/ml of IL-7 for 2 days, and isolated T-cells were then TLR2 ligand-depoted for 1 hour. Depoted T-cells were then resting for 0 h, 3 h, 24 h, or 48 h, before T-cells were chemically fixed and co-cultured for 2 days with CD45.1^+ bystander B-cells. Bystander B-cells were used as a reporter to determine TLR2 ligand surface persistence on depoted T-cells by their fold MFI of MHCII and CD69. n=5 independent experiments. Data depict m±s.d.
A) Pam2CSK4-biotin at indicated concentrations was depoted into CD3+CD8+ or CD3+CD8− T-cells and stained with streptavidin (SAV) PE as determined by flow cytometry. B) Paracrine signaling of resting vs Concanavalin A/IL-7-activated TLR2 ligand-depoted CD8+ T-cells. Activated CD8+ T-cells were isolated from splenocytes cultured in 2 μg/ml of Concanavalin A and 10 ng/ml of IL-7 for 2 days. TLR2 ligand was depoted and processed by CD8+ T-cells for 0 h, 3 h, 6 h, 24 h, or 48 h, before T-cells were chemically fixed and cultured for 2 days with bystander B-cells to determine fold MFI intensity of MHC II, CD69, and CD86 (C).
CD45.1+ B cells were depoted with lipo-CpG, CpG, or nothing. These were cultured alone or 1:1 mixed with bystander (no depot) CD45.1− B cells. B cell activation was shown as fold intensity CD86 measured by flow cytometry after 3 d. B) CD8+ T cells were depoted with Pam2CSK4 or nothing, and then co-cultured 1:1 with bystander CD45.1+ B cells for 3 d. B cell activation was measured by CD86 and compared to a continuous exposure Pam2CSK4 control. […]
After determining that depoting was a robust process, the function of depoted Pam2CSK4 to activate neighboring immune cells was tested. Depoted T cells were co-cultured with responders (B cells) and the expression of activation markers was determined after 2 days of co-culture at a 1:1 T cell:B cell ratio.
In FIG. 11, Pan T cells were isolated from mice and either left alone (blue, red) or depoted with Pam2CSK4 for 1 h (green). […] Expression levels of activation markers were analyzed by flow after 2 days and fluorescence intensity normalized to B cells activated with polyclonal stimulus. […]

[2] = tested on: resting memory CD4+ T cells; conditions: cited from earlier work
cognate CD8+ T-cells = assay: Antigen presentation by lipo-GP100-depoted B-cells to cognate CD8+ T-cells (T-cell proliferation, CFSE dilution); format: cell-based, murine
Protocol: A) Activated B-cells were isolated from splenocytes and cultured with 1 μg/ml TLR7 ligand R848 and αIgM antibody for 2 days. Resting versus activated B-cells were depoted with lipo-GP100-FAM for 1 hour. Lipo-GP100-FAM and forward scatter fold increase was measured by flow cytometry. B) LipoGP100-depoted resting B-cells presented to and proliferated cognate CD8^+ T-cells at 33 μM of 1 h depoted lipo-GP100 after 3-day culture as measured by CFSE dilution with flow cytometry. Indicated values are percent CD8^+ T-cells that divided at least once. C) BMDCs were cultured with 20 ng/ml of GM-CSF for 7 days before harvested and either depoted with 33 μM of lipo-GP100 or pulsed with 33 μM of short GP100 (KVPRNQDWL) (SEQ ID NO: 2) peptide, along with resting B-cells. These modified APCs were co-cultured with pmel-1 GP100-specific CD8^+ T-cells for 3 days to determine pmel-1 T-cell proliferation by flow cytometry. n=1 independent experiment.
Antigen processing in APC B-cells by A) endocytosis, B) direct binding affinity on APC surface, or C) depoting. 33 uM of indicated GP100 antigen is conferred to APC B-cells for 1 h, then processed by B-cells in aforementioned antigen processing mechanisms for 0 h, 3 h, or 16 h, before B-cells are chemically fixed and cultured with cognate CD8^+ T-cells for 3 days to determine T-cell proliferation. n=1 independent experiment.
An diacyl (C18) lipid-conjugated ligands (lipo-ligands) was engineered that can be depoted into cell membranes in a time- and concentration-dependent fashion for precise and robust delivery up to 241.5±9.6 (mean±SD) fold increase compared to nondepoted cells. […] B) Representative histograms of fluorescein-labeled (FAM-labeled) lipo-GP100 fluorescence on B-cell surface as functions of depot time and lipo-GP100 concentration measured by flow cytometry. Median fluorescence intensity (MFI) of lipo-GP100 FAM fold increase on B-cells from non-depoted B-cells by flow cytometry. […]

Substance | effect of depoting on CD8+ T cell proliferation in response to αCD3/28 beads (CD8+ T cells) | proliferative capacity of depoted T cells in the presence of tumor cells [1] | insertion into cell membranes (T-cells) | intracellular localisation by microscopy (T-cells; 24 h post-depoting) | B cell activation by depoted CD8+ T cells relative to continuous exposure control (bystander B cells (TLR2); 1:1 co-culture 3 d, CD86) | duration of trans signaling and activation of B cells by depoted CD8+ T cells (bystander B cells (TLR2); 1:1 co-culture, CD86) [days] | activation of neighboring responder B cells by depoted T cells relative to soluble ligand (bystander B cells (TLR2); 2 days co-culture, 1:1 T cell:B cell ratio, depoted 1 h) | persistence of bystander-activating activity of depoted T cells (bystander B cells (TLR2); data not shown) | HIV latency reactivation ("shock") activity [2] | manner of antigen presentation by APC B-cells to cognate CD8+ T-cells (cognate CD8+ T-cells; 33 uM antigen 1 h, processed 0 h, 3 h or 16 h, fixed, 3-day culture) | B-cells as APCs versus BMDCs presenting antigen, MHCI-restricted (cognate CD8+ T-cells; 33 μM depoted, 3-day co-culture with pmel-1 CD8+ T-cells) | duration of antigen presentation from B-cells to cognate CD8+ T-cells (cognate CD8+ T-cells; GP100 25-33 antigen delivered by depoting) [h]
Pam2CSK4 | did not | recovered proliferative capacity in the presence of tumor cells | can be rapidly inserted into cell membranes | colocalizing with early endosome antigen 1 (EEA1) | nearly matching continuously exposed control | 3 | nearly equivalent to high doses of Pam2CSK4 in solution | persists for multiple days |  |  |  | 
Pam3CSK4 |  | recovered proliferative capacity in the presence of tumor cells | can be rapidly inserted into cell membranes |  |  |  |  |  | effective “shock” agent |  |  | 
lipo-GP100: diacyl 18-carbon tails conjugated to a PEG linker plus melanoma antigen GP10025-33 (KVPRNQDWL) (SEQ ID NO: 2) (also: diacyl C18 lipid tails via PEG linker, site not given here) |  |  |  |  |  |  |  |  |  | delayed and prolonged manner | comparable to bone marrow derived cells (BMDCs) | > 16

Reference: US20190046649A1, “DELIVERY DEVICE AND USE THEREOF FOR LOADING CELL PLASMA MEMBRANES” (UNIVERSITY OF MARYLAND, BALTIMORE COUNTY, priority 2017, published 2019)
